Entries after “also recorded” stand apart in the source; their conditions may differ. Non-standard residues stand in square brackets, D forms with d. Residues, ends and D or L forms follow the SMILES beside them. *: point of attachment. Biotin = O=C1N[C@H]2[C@H](CS[C@H]2CCCCC(=O)*)N1
Key:
MDBK cells [1] = test: Uptake and intracellular localization of biotin-HDAP2 (streptavidin staining); assay type: cell-based, bovine; details: for cellular uptake and intracellular localization: 37° C., up to 1 h
Description: (§1) Biotin-HDAP2 was studied using Madin-Darby Bovine Kidney Epithelial cell line (MDBK). Monolayers of cells were grown on 6-well plates for 3 days. On day 4, cells were washed twice with pre-warmed DMEM, and then incubated with 0.2 ml of DMEM containing 10 μM biotin-HDAP2 at 37° C. for up to 1 h. Cells were then washed and fixed in 4% paraformaldehyde and biotin-HDAP2 was detected using Alexa FLUOR™ 488 streptavidin. Cells were also co-stained with MitoTracker-Red or DAPI to identify cytoplasmic compartment or nuclei, respectively. Cells were then visualized in a fluorescent microscope (Nikon Eclipse-ci-SRS).
as §1, with “MitoTracker-Red” for “MitoTracker-Red or DAPI”, “identify mitochondria.” for “identify cytoplasmic compartment or nuclei, respectively.”, “visualized using” for “visualized in”
Biotin-HDAP2 uptake: To assess uptake of biotin-HDAP2 into cells, cultures were incubated in serum-free media for three days to deplete endogenous biotin (Birk et al., 2013) and then treated with biotin-HDAP2 (1 μM) for one hour. Cells were fixed with 4% paraformaldehyde and incubated for one hour with Alexa Fluor 594 conjugated streptavidin (1:100, Jackson ImmunoResearch) to localize the peptide within the cells, Hoechst 33342 (10 μg/ml, Novus) to label nuclei, and Mito Tracker Red CMXRos (MTR; 50 nM, Invitrogen) to identify mitochondria; MTR binds to thiol groups, which are heavily concentrated in the mitochondrial matrix. Cells were rinsed and imaged immediately in the dish using a Nikon Eclipse 50i fluorescent microscope with a 40× immersion objective (NA 0.8).
Intracellular Localization of biotin-HDAP2: Intracellular targeting of biotin-HDAP2 was determined by incubating MDBK cells (ATCC-CCL22) that were grown in biotin-free media for 72 hours, with 10 μM of N-biotinylated biotin-HDAP2 for 1 hour. Cells were then fixed with 4% paraformaldehyde, permeabilized with 0.1% Triton X-100, and treated with streptavidin conjugated with Alexa Fluor 488 (SA) for 30 minutes at room temperature. […]
SA fluorescence was normalized to Hoechst fluorescence to account for differences in cell number in each field. The intensity of SA fluorescence was measured in each field, using the “Analyze” feature in ImageJ to compute the mean pixel intensity (in arbitrary fluorescence units) from the images. […]

[2] = NAO fluorescence with POPC liposomes; assay type: binding
Description: (§2) The resulting multilamellar vesicles were vortexed lightly and sized into small unilamellar vesicles by heated bath sonication for 25 min. All liposomes were cooled to ambient temperature before use.
Interaction of biotin-HDAP2 Peptide with Phospholipids: The ability of biotin-HDAP2 to displace nonyl acridine orange (NAO), a fluoroprobe known to selectively bind CL was determined. Interaction of biotin-HDAP2 with phospholipids was examined by measuring changes in the fluorescence spectra of 3 μM NAO (Molecular Devices, Sunnyvale, CA)) with excitation at 480 nm. CL and POPC in liposomes were use at 30 μM. Dose response curves were done with 30 μM CL, biotin-HDAP2 (0, 2.5, 5, 10, 20, and 30 μM), and 3 μM of NAO (ex/em at 480 nm/520 nm). All experiments were done in 10 mM Hepes (pH 7.4) to optimize electrostatic interactions of peptides with phospholipids.

[3] = Nile Red fluorescence shift in POPC liposomes; assay type: binding
Description: as §2
Interactions between biotin-HDAP2 and Phospholipid liposomes measured by Nile Red fluorescence: The hydrophobicity of biotin-HDAP2 and phospholipids was examined by changes in the spectral fluorescence shift and intensity of Nile Red (NR, 10 μM). NR increases its intensity of fluorescence when combined with the hydrophobic environments of acyl chains of phospholipids, and produces a blue shift when hydrophobicity is increased. All experiments were done with 30 μM of either CL or POPC and 30 μM of biotin-HDAP2 in 10 mM Hepes (pH 7.4) to optimize the electrostatic interactions of peptides with phospholipids. The solvents used to dissolve the various phospholipids (chloroform, methanol, and ethanol) had negligible effects on the fluorescence spectra.

MDBK cells [4] = details: dilutions up 100 μM

## N=C(N)NCCC[C@@H](NC(=O)[C@H](Cc1ccccc1)NC(=O)[C@H](Cc1ccccc1)NC(=O)[C@@H](CCCNC(=N)N)NC(=O)CCCC[C@@H]1SC[C@@H]2NC(=O)N[C@@H]21)C(N)=O [biotin-HDAP2, Biotin-dArg-Phe-Phe-dArg-NH2] (Biotin-[dR]FF[dR]-NH2)
MDBK cells [1]; 10 μM
  cellular uptake and intracellular localization: targets mitochondria; also recorded: penetrates cell membranes
MDBK cells [1]; 10 μM, listed as Biotin-HDAP2
  cellular uptake and intracellular localization: primarily localized to the cytoplasmic compartment; also recorded: taken into mitochondria; also recorded: co-localized with MitoTracker-Red
MDBK cells [1]; 10 μM, 1 hour, serum-starved MDBK cells
  speed of entry into the cell compared with biocytin: about 6 times
MDBK cells [1]; MDBK cells, streptavidin AF 488
  level of biotin-HDAP2 in cells relative to endogenous biotin: > 10 ×
[2]
  effect on interaction between NAO and POPC liposomes: did not interfere with the interaction between NAO and the POPC liposomes
[3]
  Nile Red shift: no shift could be detected
MDBK cells [4]
  cellular toxicity: No toxicity in MDBK cell growth was observed
Water solubility
  water solubility: water soluble

— US20250276996A1, “CATIONICALLY-ENFRAMED HIGH DENSITY AROMATIC PEPTIDES” (Research Foundation of the City University of New York, priority 2022, published 2025)
